The text below walks through data of article PMC9919730, “A Versatile Continuous Fluorometric Enzymatic Assay for Targeting Nicotinate Phosphoribosyltransferase” (Molecules, 2023).

For assay [1], the system named is OVCAR-5 cells. Kind of assay: Cell viability, sulforhodamine B assay, with or without FK866. The format is cell-based. The settings on record: for Sensitization of cells to FK866 (cell viability in combination): 200 µM compound with FK866 0 to 100 nM; for Combination index (CI): CompuSyn; for viability at 200 µM: Homo sapiens, OVCAR-5, 200 µM compound with 3 nM FK866, 72 h. The procedure: The OVCAR-5 cell line was obtained from the NCI-60 panel. Cells were seeded in 96-well plates (3 × 10^3 cells/well) and were treated with the selected compounds at a 200 µM final concentration or with 0.2% DMSO the day after, in combination with increasing concentrations of FK866, ranging from 0 to 100 nM. Treated cells were incubated at 37 °C and 5% CO2 for 72 h. At the end of the treatment, trichloroacetic acid (TCA) (10% final concentration) was added to each well. After 20 min at 4 °C, the wells were washed 4 times with tap water to remove TCA, and they were let to dry. Cell viability was evaluated with the sulforhodamine B assay, as previously described.
Background: Sulforhodamine B stains cellular protein and so reports cell mass.

Assay [2] has as its system OVCAR-5 cells. Briefly: Intracellular NAD+ levels measurement (cycling assay). The format is cell-based. The settings on record: for Effect on NAD+ levels combined with FK866: 200 µM compound with 3 nM FK866, 24 h; for NAD levels: 200 µM compound with 3 nM FK866, after 72 h of incubation as printed. The procedure: The compounds were prepared as described above. OVCAR-5 cells were seeded in a 12-well plate (1 × 10^5/well). The day after, cells were treated with combinations of each selected compound (200 µM, final concentration) and FK866 (3 nM, final concentration) and were incubated at 37 °C and 5% CO2. […] Cell lysates were subsequently collected, transferred to new tubes, and diluted in 100 mM Na2HPO4 at pH 8. To determine the amount of NAD^+, we utilized a sensitive cyclic assay that takes advantage of the enzymatic activity of ADH [23]. Briefly, 0.1 mL of the cycling reagent (2% (v/v) ethanol, 100 μg/mL ADH, 20 μM resazurin, 5 μg/mL diaphorase, 10 μM FMN, 10 mM nicotinamide, and 100 mM sodium phosphate, pH 8.0) were added to each well, containing 0.1 mL of each diluted sample. The increase in resorufin fluorescence (544 nm excitation, 590 nm emission) was measured every min over a 2 h period using a fluorescence plate reader (Fluostar Optima, BMG Labtechnologies GmbH, Offenburg, Germany). A NAD^+ standard curve was always run in parallel in each assay.

Assay [3] addresses T1, human recombinant NAPRT (Homo sapiens, UniProt Q6XQN6).
T1 sequence (Q6XQN6 1-538): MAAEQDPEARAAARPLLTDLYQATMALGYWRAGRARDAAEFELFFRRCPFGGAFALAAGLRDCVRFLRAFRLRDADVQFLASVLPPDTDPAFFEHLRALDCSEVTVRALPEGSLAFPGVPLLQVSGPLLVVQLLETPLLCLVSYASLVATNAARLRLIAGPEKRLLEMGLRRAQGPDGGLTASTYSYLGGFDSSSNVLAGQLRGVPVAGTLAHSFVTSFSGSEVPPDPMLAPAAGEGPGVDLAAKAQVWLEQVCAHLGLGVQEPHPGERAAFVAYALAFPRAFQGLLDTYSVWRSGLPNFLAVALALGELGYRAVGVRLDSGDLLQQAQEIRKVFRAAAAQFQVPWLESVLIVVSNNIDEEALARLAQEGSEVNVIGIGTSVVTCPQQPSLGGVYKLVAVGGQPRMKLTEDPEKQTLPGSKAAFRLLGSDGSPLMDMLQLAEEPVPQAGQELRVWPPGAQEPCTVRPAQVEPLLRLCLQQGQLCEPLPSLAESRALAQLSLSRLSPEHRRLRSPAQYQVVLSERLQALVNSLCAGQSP
Kind of assay: Continuous coupled fluorometric NADH assay of NAPRT activity. The settings on record: for Inhibitory activity against NAPRT (in words): screening at 0.5 mM.
Description: NADH fluorescence was monitored continuously at 37 °C for 30 min, using a 96-well plate in a Sinergy HT microplate reader (Bio-Tek, Winooski, VT, USA) set at excitation and emission wavelengths of 340 nm and 460 nm, respectively. The slope of the linear fit of fluorescence versus time was used to calculate the NAPRT activity by referring to an NADH standard curve, obtained by plotting the fluorescence of a known amount of NADH versus the nucleotide concentrations. […] These mixtures were optimized to make NadD the rate-limiting enzyme of the ancillary system, i.e., concentrations of the enzyme NadD and the NAMN substrate were chosen to guarantee a linear time course of the fluorescence increase up to 30 min.
The analyzed compounds were dissolved in 100% v/v DMSO. Few compounds were dissolved in water. The compounds were tested at a 0.5 mM concentration. […] The screening was started by using the NADH assay. […] The fluorescence increase was monitored continuously, which allowed us to easily estimate the quality of data and to identify potential artifacts (e.g., arising from compounds precipitation). […] One inhibitor control for each tested compound (compound and no NAPRT), as well as four positive controls (NAPRT and no compound) and four negative controls (no NAPRT and no compound) were included in every reaction plate. The percentage inhibition was calculated relative to the controls as follows: % inhibition=(Si−Ci)/(µp−µn)×100 where Si represents the signal in the presence of the compound; Ci is the signal of the inhibitor control; and µp and µn are the mean values of the signals of the positive and negative controls, respectively.
The IC50 value was determined by plotting the rates versus inhibitor concentration and fitting to the equation: Vi = V0/(1 + [I]/IC50) using GraphPad Prism 7. V0 and Vi represent initial rates in the absence and presence of the inhibitor at concentration [I], respectively.
Ki values were calculated from the straight line deriving from the replotting of the slopes of the reciprocal plot against the concentrations of the inhibitor (secondary plot). In particular, the straight line intersects the x-axis at [I] = −Ki [28].

Assay [4] has as its target T1, human recombinant NAPRT. Briefly: Resazurin/diaphorase-coupled assay of NAPRT activity. The format is biochemical. Details: inferred from purification on a HisTrap IMAC column with imidazole elution; made in house; host or cells: E. coli BL21 (D3). As to conditions: 0.5 mM compound; 0.1 mM NA, 0.4 mM PRPP; resazurin/diaphorase-coupled assay (optical interference at NADH wavelength). (In general: The colour change of resazurin is a common sign of viable cells or microbes.)
Description: The NAPRT concentration was 0.004 × 10^−3 U/mL (2 nM). […] The increase in fluorescence due to resorufin formation in the assay was monitored continuously for 30 min, at 590 nm, after excitation at 530 nm, using a 96-well plate in the Sinergy HT microplate reader at 37 °C. […] To determine the NAPRT activity, the first derivative of the recorded fluorescence curve was calculated, and the slope of the corresponding curve was referred to a standard curve obtained by plotting the fluorescence rate recorded in assay mixtures containing known amounts of NAD^+ in the absence of NAPRT, NadD, and NadE versus the dinucleotide concentrations.
The analyzed compounds were dissolved in 100% v/v DMSO. Few compounds were dissolved in water. The compounds were tested at a 0.5 mM concentration. […] The screening was started by using the NADH assay. […] One inhibitor control for each tested compound (compound and no NAPRT), as well as four positive controls (NAPRT and no compound) and four negative controls (no NAPRT and no compound) were included in every reaction plate. The percentage inhibition was calculated relative to the controls as follows: % inhibition=(Si−Ci)/(µp−µn)×100 where Si represents the signal in the presence of the compound; Ci is the signal of the inhibitor control; and µp and µn are the mean values of the signals of the positive and negative controls, respectively.

Assay [5] deals with T1, human recombinant NAPRT. Briefly: HPLC assay of NAPRT activity. The format is biochemical. On the set-up: inferred from purification on a HisTrap IMAC column with imidazole elution; made in house; host or cells: E. coli BL21 (D3). As to conditions: 0.5 mM compound; 0.1 mM NA, 0.4 mM PRPP; HPLC assay (interference with both fluorometric assays).
Description: The amount of enzyme was optimized to provide substrate consumption below 20% of the initial concentration after 10 min of incubation at 37 °C. In addition, withdrawals from the reaction mixture at 5 and 10 min were always performed to ensure a linear time frame. The reaction was stopped by acidification with 0.6 M HClO4. After 10 min on ice, samples were clarified by centrifugation for 2 min at 13,000× g. The supernatants were neutralized with 0.8 M K2CO3, frozen at −20 °C for about 20 min, centrifuged at 13,000× g for 5 min, and injected onto a Supelcosil LC-18-S column (5 µm; 250 × 4.6 mm) thermostatted at 8 °C. […] The elution was monitored at 260 nm (Shimadzu SPD-M20A), and the formed NAMN was quantified by referring to an appropriate standard.
The analyzed compounds were dissolved in 100% v/v DMSO. […] The fluorescence increase was monitored continuously, which allowed us to easily estimate the quality of data and to identify potential artifacts (e.g., arising from compounds precipitation). […] The percentage inhibition was calculated relative to the controls as follows: % inhibition=(Si−Ci)/(µp−µn)×100 where Si represents the signal in the presence of the compound; Ci is the signal of the inhibitor control; and µp and µn are the mean values of the signals of the positive and negative controls, respectively.
[6] abbreviates: FK866 dose 3 nM with 200 µM compound.
Where [7] appears, read: FK866 dose 10 nM with 200 µM compound.
Where [8] appears, read: FK866 dose 30 nM with 200 µM compound.
[9] abbreviates: FK866 dose 100 nM with 200 µM compound.
Where [10] appears, read: 0.5 mM compound, 0.1 mM NA, 0.4 mM PRPP, NADH assay.
[11] abbreviates: towards NA, NA 10 to 50 µM at 0.4 mM PRPP, NADH assay.

SMILES strings stand for the structures. “Also recorded” adds a separate entry of the source. Read-outs that look alike come from different tables or passages of the source.

`O=C(O)c1cccnc1O` [Compound 1, 2-hydroxynicotinic acid]: the “Sensitization of cells to FK866 (cell viability in combination)” value (“Sensitization of cells to FK866” for short) is “reduced cell viability when combined with FK866” in the assay with OVCAR-5 cells [1] (72 h) and “sensitize OVCAR-5 cells to the NAMPT inhibitor FK866; also recorded: effective in sensitizing tumor cells to NAMPT inhibitors” in the assay on OVCAR-5 cells [1] (72 h, listed as 2-hydroxynicotinic acid). Moreover, the “Combination index (CI)” value amounted to 0.5117 in the assay on OVCAR-5 cells [1] (setting [6]), 0.3255 in the assay on OVCAR-5 cells [1] (setting [7]), 0.339 in the assay on OVCAR-5 cells [1] (setting [8]) and 0.3592 with OVCAR-5 cells [1] (setting [9]). The viability (in general, a per cent measure of how many cells are alive, often set against a control) at 200 µM with OVCAR-5 cells [1] is roughly 75%. The “Effect on NAD+ levels combined with FK866” value in the assay with OVCAR-5 cells [2] is “most effective”. Also, the NAD levels entry in the assay with OVCAR-5 cells [2] is “about 15%”.
Consider `Nc1ncccc1C(=O)O` [Compound 2, 2-aminonicotinic acid], for which the “Sensitization of cells to FK866” value with OVCAR-5 cells [1] (72 h) is given as “did not significantly sensitize cells to FK866 toxicity”. In addition, on human recombinant NAPRT [3], the concentration for half-maximal inhibition (IC50) (as a rule, the concentration that inhibits the measured activity by half) was 609 ± 69 µM and the inhibition constant (Ki) (commonly a dissociation constant, usually derived from enzyme kinetics or from competition with a known ligand) is 348 ± 36 µM. The inhibition (in general, how much of the control response was suppressed) at 500 µM at human recombinant NAPRT [3] (setting [10]) was found to be 38%. For the same compound, at human recombinant NAPRT [3] (setting [11]), the “Inhibition Mechanism” value is given as “mixed”.
`O=C(O)c1cccnc1F` [Compound 3, 2-fluoronicotinic acid]: in the assay on OVCAR-5 cells [1] (72 h), the “Sensitization of cells to FK866” value is on record as “did not significantly sensitize cells to FK866 toxicity”. Also, on human recombinant NAPRT [3], the IC50 is 351 ± 38 µM and the Ki is 149 ± 14 µM. Further, the inhibition at 500 µM at human recombinant NAPRT [3] (setting [10]) amounted to 57%. Also, at human recombinant NAPRT [3] (setting [11]), the “Inhibition Mechanism” value is on record as “non-competitive”.
Consider `O=C(O)c1ccc(Cl)nc1` [Compound 4, 6-chloronicotinic acid], for which, on human recombinant NAPRT [3], the concentration for half-maximal inhibition (IC50) was 1260 ± 115 µM, the “Inhibition Mechanism” value is recorded as 845 ± 69 non-competitive, the Ki was found to be 845 ± 69 µM and the inhibition at 500 µM came out at 44%.
For `O=C(O)c1cccnc1C(=O)O` [Compound 7, 2,3-pyridine dicarboxylic acid], the inhibition at 500 µM on human recombinant NAPRT [3] (setting [10]) was determined as 9%.
`O=C(O)c1ccc(O)nc1` [Compound 8, 6-hydroxynicotinic acid]: the inhibition at 500 µM at human recombinant NAPRT [3] was found to be 0%.
For the compound `O=C(O)c1cnccn1` [Compound 9, pyrazine-2-carboxylic acid], the “Sensitization of cells to FK866” value in the assay on OVCAR-5 cells [1] (72 h) was “reduced cell viability when combined with FK866”; in the assay on OVCAR-5 cells [1] (72 h, listed as pyrazine-2-carboxylic acid), “sensitize OVCAR-5 cells to the NAMPT inhibitor FK866”. The “Combination index (CI)” value with OVCAR-5 cells [1] (setting [6]) is on record as 0.198; with OVCAR-5 cells [1] (setting [7]), 0.0673; with OVCAR-5 cells [1] (setting [8]), 0.03276; with OVCAR-5 cells [1] (setting [9]), 0.01211. For the same compound, the viability at 200 µM in the assay with OVCAR-5 cells [1] was roughly 80%. Also, in the assay with OVCAR-5 cells [2], the “Effect on NAD+ levels combined with FK866” value is reported as “most effective”. In addition, the NAD levels in the assay on OVCAR-5 cells [2] was roughly 30%.
For the compound `Nc1nccnc1C(=O)O` [Compound 10, 3-aminopyrazine-2-carboxylic acid], at human recombinant NAPRT [4], the inhibition at 500 µM was 6%.
With `NC(=O)c1cnccn1` [Compound 12, pyrazinamide], the inhibition at 500 µM on human recombinant NAPRT [3] (setting [10]) came out at 0%.
Same read-out and setting: the same measure for `O=C(O)Cc1cnccn1` [Compound 13, 2-pyrazine acetic acid]: 0%; for `Cc1cnc(C(=O)O)c[n+]1[O-]` [Compound 14, Acipimox]: 0%.
As to `O=C(O)c1cccnn1` [Compound 15, 3-pyridazine carboxylic acid], at human recombinant NAPRT [3], the IC50 stood at 1370 ± 74 µM and the Ki worked out at 513 ± 13 µM. Further, the inhibition at 500 µM on human recombinant NAPRT [3] (setting [10]) was found to be 30%. In addition, the “Inhibition Mechanism” value on human recombinant NAPRT [3] (setting [11]) is given as “mixed inhibitor”.
Take `O=C(O)c1ccccc1O` [Compound 17, salicylic acid]: the “Effect on cell viability in the absence of FK866” value with OVCAR-5 cells [1] (200 µM compound, 72 h, no FK866) is “toxicity”. Moreover, at human recombinant NAPRT [3], the IC50 stood at 351 ± 19 µM and the Ki came out at 169 ± 15 µM. In addition, on human recombinant NAPRT [3] (setting [10]), the inhibition at 500 µM came to 58%. Moreover, the “Inhibition Mechanism” value at human recombinant NAPRT [3] (setting [11]) is recorded as “noncompetitive inhibition; also recorded: non- competitive”.
As for `CC(=O)Oc1ccccc1C(=O)O` [Compound 18, acetyl salicylic acid], the inhibition at 500 µM on human recombinant NAPRT [3] (setting [10]) was found to be 11%.
For the compound `O=C(O)c1ccccc1` [Compound 19, benzoic acid], on human recombinant NAPRT [3], the inhibition at 500 µM was found to be 8%.
The same measure, in the same setting: the same measure for `Nc1ccccc1C(=O)O` [Compound 20, anthranilic acid]: 5%.
In the case of `Nc1c(O)cccc1C(=O)O` [Compound 21, 3-hydroxy anthranilic acid], on human recombinant NAPRT [5], the inhibition at 500 µM was 5%.
On the same count and under the same terms, the same measure for `O=C(O)c1ccccc1N=Nc1ccc(O)cc1` [Compound 22, 2-(4-hydroxyphenylazo) benzoic acid]: 5%.
As for `O=C(O)c1cccc(N2CCOCC2)c1` [Compound 24, 3-morpholinobenzoic acid], at human recombinant NAPRT [4], the inhibition at 500 µM turned out to be 0%.
For `O=C(O)c1ccccn1` [Compound 25, 2-picolinic acid], at human recombinant NAPRT [3] (setting [10]), the inhibition at 500 µM was 6%.
The same measure, in the same setting: the same measure for `O=C(O)c1ccncc1` [Compound 27, isonicotinic acid]: 0%; for `O=C(O)c1cncnc1` [Compound 28, 5-pyrimidine carboxylic acid]: no more than 20%; for `O=C(O)c1ncccn1` [Compound 29, 2-pyrimidine carboxylic acid]: no more than 20%.
Take `Oc1ncccn1` [Compound 32, 2-hydroxypyrimidine]: the inhibition at 500 µM on human recombinant NAPRT [3] (setting [10]) worked out at 0%. Moreover, the “Inhibitory activity against NAPRT (in words)” value (shortened to “Inhibitory activity”) at human recombinant NAPRT [3] is given as “very poor inhibitors”.
The like results for `c1cnc(N2CCNCC2)nc1` [Compound 33, 2-(1-piperazinyl)pyrimidine] were, in that order, 0% and “very poor inhibitors”.
Consider `NC1CCC(C(=O)O)CC1` (centres unmarked) [Compound 35, 4-aminocyclohexane carboxylic acid], for which, at human recombinant NAPRT [3] (setting [10]), the inhibition at 500 µM was 0%. Besides, the “Inhibitory activity” value at human recombinant NAPRT [3] is “inactive”.
As for `CC(=O)Nc1ccccc1` [Compound 37, acetanilide], the inhibition at 500 µM on human recombinant NAPRT [3] (setting [10]) is 0%. Moreover, the “Inhibitory activity” value at human recombinant NAPRT [3] was “inactive”.
